From PubChem BioAssay AID1996
Converted amounts (≈) assume the structure as drawn.

settings: buffer; pH 7.4; 200.0 µM

Question: With `O=C(Nc1ccc(Br)cc1)Nc1cnccn1` as the compound, how does the solubility kinetic read?
Answer: Its solubility kinetic is 3 µg/mL (≈ 10.2 µM).

Question: Which solubility kinetic does the source give for `COc1ccccc1OCCN(C#N)c1nc(N(C)C)nc(N(C)C)n1` here?
Answer: The solubility kinetic was 6.3 µg/mL (≈ 17.6 µM).

Question: For `CCOc1ccc(NC(=O)COC(=O)CN2CCCCCC2=O)cc1`, which solubility kinetic is on record?
Answer: Its solubility kinetic is > 52.3 µg/mL.

Question: Which solubility kinetic does the source give for `CCOC(=O)CN1N=C(c2ccc(C)cc2)CCC1=O` here?
Answer: Its solubility kinetic is > 41.1 µg/mL.

Question: With `O=C(NC1CCCC1)c1cc(COc2ccc3ncccc3c2)on1` as the compound, how does the solubility kinetic read?
Answer: Its solubility kinetic is 21.2 µg/mL (≈ 62.8 µM).

Question: For `O=[N+]([O-])c1cccc(-c2noc(-c3ccco3)n2)c1`, which solubility kinetic is on record?
Answer: The solubility kinetic was 1.7 µg/mL (≈ 6.61 µM).

Question: For `CC(C)C(=O)O/N=C(\N)c1ccc(Oc2ccc(Cl)cc2)c([N+](=O)[O-])c1`, which solubility kinetic is on record?
Answer: Its solubility kinetic is 3.5 µg/mL (≈ 9.26 µM).

Question: With `CC(C)CCNC(=O)Cc1csc(-c2ccccc2)n1` as the compound, how does the solubility kinetic read?
Answer: The solubility kinetic was 41.4 µg/mL (≈ 144 µM).

Question: With `CC(C)n1c(NCc2ccc(Cl)cc2)nc2ccccc21` as the compound, how does the solubility kinetic read?
Answer: Its solubility kinetic is 0.7 µg/mL (≈ 2.33 µM).

Question: For `N#Cc1ccccc1NC(=O)Nc1ccccc1`, which solubility kinetic is on record?
Answer: Its solubility kinetic is > 35.6 µg/mL.

Question: With `Cc1cccc(-c2cc(C(=O)Nc3ccncc3)c3ccccc3n2)c1` as the compound, how does the solubility kinetic read?
Answer: The solubility kinetic was 0.8 µg/mL (≈ 2.36 µM).

Question: With `CCOC(=O)c1c(NC(=O)c2ccncc2)sc(C)c1C` as the compound, how does the solubility kinetic read?
Answer: Its solubility kinetic is 5 µg/mL (≈ 16.4 µM).

Question: For `O=C(CSc1nnc(Nc2ccccc2)s1)NC1CCS(=O)(=O)C1` (configuration not stated), which solubility kinetic is on record?
Answer: Its solubility kinetic is > 57.7 µg/mL.

Question: For `CNCCc1ccccn1.Cl`, which solubility kinetic is on record?
Answer: Its solubility kinetic is > 31.4 µg/mL.

Question: Which solubility kinetic does the source give for `CCN(CC)CCCNc1nc(C)cc(COC)c1C#N` here?
Answer: The solubility kinetic was > 43.6 µg/mL.

Question: Which solubility kinetic does the source give for `CC1CC(C)CN(C(=O)c2ccc3nc[nH]c3c2)C1` (configuration not stated) here?
Answer: Its solubility kinetic is > 38.6 µg/mL.

Question: Which solubility kinetic does the source give for `O=C(Nc1cc(Cl)cc(Cl)c1)c1ccno1` here?
Answer: Its solubility kinetic is 8.4 µg/mL (≈ 32.7 µM).

Question: For `Cc1ccc(S(=O)(=O)NC2CC(C)(C)NC(C)(C)C2)c(C)c1C`, which solubility kinetic is on record?
Answer: The solubility kinetic was 42.6 µg/mL (≈ 126 µM).

Question: For `CCNc1nc(Cl)nc(NC2CCCCC2)n1`, which solubility kinetic is on record?
Answer: Its solubility kinetic is 18.4 µg/mL (≈ 71.9 µM).

Question: With `C/C(=C\C(=O)c1ccc(Cl)s1)N(C)C` as the compound, how does the solubility kinetic read?
Answer: The solubility kinetic was > 34.5 µg/mL.

Question: Which solubility kinetic does the source give for `CC(C)(CO)NC(=S)NCc1ccco1` here?
Answer: The solubility kinetic was > 34.2 µg/mL.

Question: With `OCCC1CN(C2CCC2)CCN1Cc1ccc(F)c(F)c1` (configuration not stated) as the compound, how does the solubility kinetic read?
Answer: The solubility kinetic was 43 µg/mL (≈ 139 µM).

Question: Which solubility kinetic does the source give for `Fc1ccc(-c2csc(Nc3ccccn3)n2)cc1` here?
Answer: The solubility kinetic was 0.6 µg/mL (≈ 2.21 µM).

Question: With `COc1ccc(-c2cc(C(=O)NCc3cccs3)no2)cc1` as the compound, how does the solubility kinetic read?
Answer: The solubility kinetic was 0.3 µg/mL (≈ 0.954 µM).

Question: With `CCOC(=O)C1(Cc2cccc(F)c2)CCN(C(=O)c2ccoc2C)CC1` as the compound, how does the solubility kinetic read?
Answer: Its solubility kinetic is 52.2 µg/mL (≈ 140 µM).

Question: Which solubility kinetic does the source give for `CCCCNC(=O)NCCN1CCOCC1` here?
Answer: The solubility kinetic was 31.9 µg/mL (≈ 139 µM).

Question: Which solubility kinetic does the source give for `Cc1nc(-c2ccccn2)nc(N(C)c2ccccc2)c1Cl` here?
Answer: Its solubility kinetic is 41.7 µg/mL (≈ 134 µM).

Question: For `O=C(CN1C(=O)NC2(CCc3ccccc32)C1=O)Nc1c(Cl)cccc1Cl` (configuration not stated), which solubility kinetic is on record?
Answer: The solubility kinetic was > 60.6 µg/mL.

Question: For `OC(CNC1Cc2ccccc2C1)c1ccccc1` (configuration not stated), which solubility kinetic is on record?
Answer: The solubility kinetic was > 38 µg/mL.

Question: For `Cc1cn2c(nc1=O)OC1CC2OC1CO` (configuration not stated), which solubility kinetic is on record?
Answer: The solubility kinetic was > 33.6 µg/mL.

Question: With `Cc1cc(C(=O)COC(=O)Cc2ccc(Cl)cc2)c(C)n1C` as the compound, how does the solubility kinetic read?
Answer: The solubility kinetic was 21.3 µg/mL (≈ 66.6 µM).

Question: Which solubility kinetic does the source give for `O=C(O)CCC(=O)NNC(=O)c1ccc([N+](=O)[O-])cc1` here?
Answer: Its solubility kinetic is > 42.2 µg/mL.

Question: With `CCC1(CC)Cc2ccccc2C(=O)N1` as the compound, how does the solubility kinetic read?
Answer: Its solubility kinetic is > 30.5 µg/mL.

Question: With `O=C(CCC(=O)Nc1cccc([N+](=O)[O-])c1)NCc1ccccc1` as the compound, how does the solubility kinetic read?
Answer: Its solubility kinetic is 48.5 µg/mL (≈ 148 µM).

Question: With `O=c1[nH]c2ccccc2[nH]c1=O` as the compound, how does the solubility kinetic read?
Answer: The solubility kinetic was > 24.3 µg/mL.

Question: Which solubility kinetic does the source give for `FC(F)(F)c1ccccc1CNCc1ccc2c(c1)OCO2` here?
Answer: The solubility kinetic was 25.8 µg/mL (≈ 83.4 µM).

Question: For `O=C1c2cccc3cccc(c23)C(=O)N1c1cccc(O)c1`, which solubility kinetic is on record?
Answer: Its solubility kinetic is 1.3 µg/mL (≈ 4.49 µM).

Question: Which solubility kinetic does the source give for `Cc1ccc(-c2cc(-c3ccco3)c(C#N)c(=O)[nH]2)cc1` here?
Answer: Its solubility kinetic is 2.6 µg/mL (≈ 9.41 µM).

Question: Which solubility kinetic does the source give for `O=C(COc1cccnc1[N+](=O)[O-])NCc1cccs1` here?
Answer: Its solubility kinetic is > 44 µg/mL.

Question: For `Cc1ccsc1C(=O)OCC(=O)Nc1nnc(-c2ccccc2)o1`, which solubility kinetic is on record?
Answer: Its solubility kinetic is > 51.5 µg/mL.

Question: Which solubility kinetic does the source give for `CCN(C(=O)CSc1ccccn1)C1CCCCC1` here?
Answer: Its solubility kinetic is > 41.8 µg/mL.

Question: With `C/C(Cl)=C\C[N+](C)(C)CC(=O)OCCc1ccccc1.[Br-]` as the compound, how does the solubility kinetic read?
Answer: The solubility kinetic was > 56.5 µg/mL.

Question: With `COc1ccc2[nH]c(C(=O)NCCN3CCOCC3)cc2c1` as the compound, how does the solubility kinetic read?
Answer: The solubility kinetic was 31.6 µg/mL (≈ 104 µM).

Question: Which solubility kinetic does the source give for `OC1(c2ccc(F)cc2)CCN(Cc2cccnc2)CC1` here?
Answer: Its solubility kinetic is > 43 µg/mL.

Question: For `Cc1ccc(NC(=O)c2ccccc2F)c(NC(=O)c2ccccc2F)c1`, which solubility kinetic is on record?
Answer: The solubility kinetic was 6.4 µg/mL (≈ 17.5 µM).

Question: With `COc1cc(C)c(S(=O)(=O)N2CCOCC2)c(C)c1C` as the compound, how does the solubility kinetic read?
Answer: The solubility kinetic was > 44.9 µg/mL.

Question: With `CCOC(=O)C1=C(C)NC(C)=C(C(=O)OCC)C1c1ccco1` as the compound, how does the solubility kinetic read?
Answer: Its solubility kinetic is 8.8 µg/mL (≈ 27.6 µM).

Question: With `O=C(COc1ccccc1)Nc1ccccc1C(=O)NC1CC1` as the compound, how does the solubility kinetic read?
Answer: Its solubility kinetic is 6.4 µg/mL (≈ 20.6 µM).

Question: With `CN(C)/C=N/c1ncc(C(=O)OC(C)(C)C)s1` as the compound, how does the solubility kinetic read?
Answer: Its solubility kinetic is > 38.3 µg/mL.

Question: For `CCN1CCc2c(OCC(=O)Nc3ccc4c(c3)OCCO4)cccc2C1=O`, which solubility kinetic is on record?
Answer: The solubility kinetic was 29.8 µg/mL (≈ 77.9 µM).

Question: With `Nc1cc(=O)[nH]c(SCC(=O)Nc2cc(S(=O)(=O)N3CCCCCC3)ccc2Cl)n1` as the compound, how does the solubility kinetic read?
Answer: Its solubility kinetic is 5.4 µg/mL (≈ 11.4 µM).

Question: With `CN(C)/C=C/C(=O)c1ccc(OCCN(C)c2ccccn2)cc1` as the compound, how does the solubility kinetic read?
Answer: The solubility kinetic was > 48.8 µg/mL.

Question: With `N#Cc1ccc(CSc2ccccn2)c(Cl)c1` as the compound, how does the solubility kinetic read?
Answer: Its solubility kinetic is 3.4 µg/mL (≈ 13 µM).

Question: For `N#CC1(NC(=O)COC(=O)/C=C/c2ccc3ccccc3n2)CCCCC1`, which solubility kinetic is on record?
Answer: Its solubility kinetic is 3 µg/mL (≈ 8.25 µM).

Question: For `O=c1c2ccccc2sn1-c1nccs1`, which solubility kinetic is on record?
Answer: Its solubility kinetic is 1.4 µg/mL (≈ 5.98 µM).

Question: Which solubility kinetic does the source give for `CC(OC(=O)C1=COCCO1)C(=O)Nc1ccccc1C#N` (configuration not stated) here?
Answer: Its solubility kinetic is 38.8 µg/mL (≈ 128 µM).

Question: With `CCOC(=O)Cc1csc(NC(=O)CSc2nc(C)cc(C)n2)n1` as the compound, how does the solubility kinetic read?
Answer: Its solubility kinetic is > 55 µg/mL.

Question: For `CCOc1ccc(N(C(=O)C2CCCO2)C2C=CS(=O)(=O)C2)cc1` (configuration not stated), which solubility kinetic is on record?
Answer: The solubility kinetic was > 52.7 µg/mL.

Question: For `Cc1cc(NC(=O)CSc2nccn2-c2cccc(F)c2)no1`, which solubility kinetic is on record?
Answer: Its solubility kinetic is > 49.9 µg/mL.

Question: For `O=[N+]([O-])c1cccc(-c2nc(-c3ccccn3)no2)c1`, which solubility kinetic is on record?
Answer: Its solubility kinetic is 6.4 µg/mL (≈ 23.9 µM).

Question: With `Cc1nnc(SCC(=O)N(C)CC(=O)Nc2ccccc2Cl)s1` as the compound, how does the solubility kinetic read?
Answer: Its solubility kinetic is > 55.6 µg/mL.

Question: With `CC(Cc1c[nH]c2ccccc12)C(=O)NCc1ccco1` (configuration not stated) as the compound, how does the solubility kinetic read?
Answer: Its solubility kinetic is > 42.4 µg/mL.
